In this assay the test system is P. acnes (ATCC 6919). Put plainly: ΣFIC assay against P. acnes (checkerboard MIC, alamar blue). As to conditions: P. acnes ATCC 6919 in LB, anaerobic 37° C. 50 hours, lowest concentration giving complete growth inhibition; for MIC: Cutibacterium acnes, ATCC6919, single active alone, read-out: MIC (Minimum Inhibition Concentration). It is filed as cell-based, Propionibacterium acne (P. acnes). How it is done: Synergistic interaction between the essential oil active and the AML compounds was determined using the ΣFIC assay against P. acnes. A brief description of the method is given below.
Methods: ΣFIC Assay Against P. acnes
P. acnes (ATCC 6919) is inoculated on Reinforced Clostridial Medium Agar plate (RCMA, solution A) and cultured anaerobically in an anaerobic jar at 37° C. for 72 to 96 hours. A single colony was cultured into Reinforced Clostridial Medium (RCM, solution B) and incubated anaerobically at 37° C. for 72 to 96 hours. Final cell density is adjusted to around 5×10^7 cells/ml by diluting using RCM. Then the inoculum is further diluted 1:1000 into Luria-Bertani medium (LB, solution C) to get around 5*10^4 cell/ml.
Essential oil active was serially diluted (2-fold) to prepare in a range of 10 to 10,000 ppm in the LB growth medium. The AML compound was serially diluted (2-fold) to prepare in a range of 15.6 to 1000 ppm for sapienic acid, and palmitoleic acid; and 2-125 ppm for other AMLs in the LB growth medium.
Binary combinations of essential oil and AML compound were prepared in 96-well plate by mixing 20 μl of essential oil solution with 20 μl of AML compound. The solution in each well were further mixed with 160 μl of P. acnes in LB. The final cell density in the testing plate is around 4*10^4 cell/ml, and the final concentration of actives in each well of the 96-well plate were shown below.
The fatty acid AML sapienic acid and palmitoleic acid compound concentrations (in ppm): 100, 50, 25, 12.5, 6.25, 3.13, 1.56, and 0. The sphingosine AML compound concentrations (in ppm): 12.5, 6.3, 3.1, 1.6, 0.8, 0.4, 0.2 and 0.
The plate was incubated anaerobically at 37° C. for 50 hours. Then 20 μl of alamar blue (0.01%) was added into each well with a further incubation aerobically for two to three days to observe the color change. Red color indicates microbial growth and the non-changing blue color indicates no growth. In addition, it was also confirmed that the testing compound alone will not cause color change of alamar blue with a control mixture without adding microbes.
The MIC is defined as the absolute lowest concentration of active that provides complete microbial growth inhibition as indicated by the blue color of alamar blue under the tested condition.
The differing behaviour of inhibitory antimicrobials in isolation and mixtures have been widely explored using the concept of the Fractional Concentration (FC) and Fractional Inhibitory Concentration (FIC). The parameter can be defined as follows: […]
These relationships can be expressed mathematically by summing the fractional MIC values for all the components present in the mixture to give the “fractional inhibition index”. There is no consistent approach in the academic or patent literature in defining precise limiting ΣFIC values that differentiate synergy from additivity or antagonism. In this study, we have adopted a liberal approach defining any binary mixture with ΣFIC<0.9 as showing evidence of synergistic behavior.
ΣFIC=FIC (component 1)+FIC (component 2)
ΣFIC=1 corresponds to additive microbial activity
ΣFIC>1 corresponds to antagonistic microbial activity
ΣFIC<0.9 corresponds to synergistic microbial activity
Based on the concentration range of the essential oil actives (0 to 1000 ppm) and the AML compound (0 to 100 ppm) at which the experiments were carried out, the ΣFIC of the combinations is given below in Table-1.

For `CCCCCCCCCCCCCCC[C@@H](O)[C@@H](N)CO` [dihydrosphingosine], the “MIC (Minimum Inhibition Concentration)” value (single active alone) came to 0.2 ppm. For `CCCCCC/C=C\CCCCCCCC(=O)O` [palmitoleic acid], the MIC was 1 µg/mL. Still for that read-out and setting: to `CCCCCCCCCCCCCC[C@@H](O)[C@@H](O)[C@@H](N)CO` [phytosphingosine] belongs 0.2 µg/mL; to `CCCCCCCCCCCCC/C=C/[C@@H](O)[C@@H](N)CO` [sphingosine], 0.4 µg/mL.

In the case of `Cc1ccc(C(C)C)c(O)c1` [thymol], the MIC turned out to be 62.5 µg/mL.

(Values after patent US20210030646A1, “AN ANTIMICROBIAL COMPOSITION COMPRISING ESSENTIAL OIL AND ANTIMICROBIAL LIPID” (Conopco, Inc., d/b/a UNILEVER, priority 2017, published 2021).)
